Measured values as given in paper PMC2719696, “Kinetics and Cellular Site of Glycolipid Loading Control the Outcome of Natural Killer T Cell Activation” (Immunity, 2009).

Biological target: T1, mCD1d.WT (Mus musculus, UniProt P11609)
T1 construct: expressed in transfected cells; host or cells: A20 B lymphoma cells (provided by M. Kronenberg)
T1 sequence (P11609 22-336): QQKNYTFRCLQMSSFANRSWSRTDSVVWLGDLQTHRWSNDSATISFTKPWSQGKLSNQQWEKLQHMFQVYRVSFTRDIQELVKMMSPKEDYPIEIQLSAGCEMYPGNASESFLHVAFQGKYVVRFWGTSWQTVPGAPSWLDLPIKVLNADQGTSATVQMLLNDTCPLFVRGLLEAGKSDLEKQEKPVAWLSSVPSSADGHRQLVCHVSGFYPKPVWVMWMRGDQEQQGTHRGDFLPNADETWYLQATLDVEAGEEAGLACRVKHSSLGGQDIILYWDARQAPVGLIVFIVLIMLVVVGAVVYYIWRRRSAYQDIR
T1 sequence (P01887 21-119 partner): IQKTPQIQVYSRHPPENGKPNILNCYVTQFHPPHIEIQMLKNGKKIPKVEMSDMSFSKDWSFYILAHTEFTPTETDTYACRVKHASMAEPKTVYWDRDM
Experiment: iNKT hybridoma DN3A4.1-2 stimulation with A20 cells expressing wild-type mCD1d, IL-2 release
Format: cell-based
Conditions: A20 B lymphoma cells expressing mCD1d.WT; compared to all Th2 cell-type cytokine-biasing analogs
Description: Figure 4 Cell Surface versus Intracellular Loading of mCD1d with Different αGalCer Analogs (A) On the left, surface accumulation of CD1d-αGalCer complexes was studied with JAWS II cells harvested after incubation with the indicated glycolipids for 1, 4, or 16 hr and then stained without permeabilization with mAb L363 (red). Cells were then fixed, stained with DAPI for nuclei visualization (blue), and analyzed by confocal microscopy. On the right, the intracellular formation and trafficking of CD1d-αGalCer complexes were analyzed by treatment of JAWS II cells with αGalCer analogs for 1, 4, and 16 hr followed by fixation and permeabilization. The cells were stained for CD1d-αGalCer complexes (L363, red), late endosomes and lysosomes (anti-LAMP-1, green), and nuclei (DAPI, blue). Results are representative of three separate experiments. The scale bar represents 10 μm. […] Supernatant concentrations of IL-2 release were determined after 12 hr. […]
For in vitro stimulation, murine iNKT hybridomas at 5 × 10^4 cells/well in 96-well plates were stimulated with an equal number of either JAWS II cells or transfected A20 cells in complete medium with glycolipids for 12 hr at 37°C, and levels of murine IL-2 secretion were determined. […] Subsequently the levels of IL-4, IL-13, and IFN-γ in culture supernatants were quantified by capture ELISA. […]

SMILES | relative potency at activating iNKT cells
CCCCCCCCCCCCCCCCCCCCCCCC(=O)NC(COC1OC(CO)C(O)C(O)C1O)C(O)C(O)CCCCCCCCCCCCCC (centres unmarked) [αGalCer-C24:0] | significantly more potent
CCCCCCCCCCCCCCCCCCCCCCCCCC(=O)NC(COC1OC(CO)C(O)C(O)C1O)C(O)C(O)CCCCCCCCCCCCCC (centres unmarked) [αGalCer-C26:0, reference compound] | significantly more potent
